According to PubChem BioAssay AID248 (DTP/NCI, 2004):
Several values for one entry are separate records, joined by “and”; a condition that tells them apart may be missing. Equal values may be shown once. Inconclusive results and toxic doses are left out.

System: L1210 leukemia ip in BDF1 mice, survival T/C
Assay: NCI In Vivo Anticancer Drug Screen. Data for tumor model L1210 Leukemia (intraperitoneal) in B6D2F1 (BDF1) mice
Conditions: endpoint: mean survival time, higher = longer survival
Outline: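 Mice bearing the transplanted tumor received compound or vehicle. Survival of the treated group was divided by that of the vehicle-treated control group to give the ratio.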

[1] = dose: 100.0 mg/kg/injection, schedule: Q04DX003 (ip), vehicle: saline
[2] = dose: 100.0 mg/kg/injection, schedule: Q04DX002 (ip), vehicle: Klucel (hydroxypropylcellulose) (HPC)
[3] = dose: 200.0 mg/kg/injection, schedule: Q04DX002 (ip), vehicle: Klucel (hydroxypropylcellulose) (HPC)
[4] = dose: 400.0 mg/kg/injection, schedule: Q04DX002 (ip), vehicle: Klucel (hydroxypropylcellulose) (HPC)
[5] = dose: 100.0 mg/kg/injection, schedule: Q01DX009 (ip), vehicle: saline with Tween-80
[6] = dose: 100.0 mg/kg/injection, schedule: Q04DX003 (ip), vehicle: saline with Tween-80
[7] = dose: 200.0 mg/kg/injection, schedule: Q04DX003 (ip), vehicle: saline with Tween-80
[8] = dose: 400.0 mg/kg/injection, schedule: Q04DX003 (ip), vehicle: saline with Tween-80
[9] = dose: 100.0 mg/kg/injection, schedule: Q01DX001 (ip), vehicle: other
[10] = dose: 200.0 mg/kg/injection, schedule: Q01DX001 (ip), vehicle: other
[11] = dose: 400.0 mg/kg/injection, schedule: Q01DX001 (ip), vehicle: other
[12] = dose: 100.0 mg/kg/injection, schedule: Q01DX009 (ip), vehicle: saline
[13] = dose: 100.0 mg/kg/injection, schedule: Q01DX009 (ip), vehicle: Klucel (hydroxypropylcellulose) (HPC)
[14] = dose: 200.0 mg/kg/injection, schedule: Q01DX009 (ip), vehicle: Klucel (hydroxypropylcellulose) (HPC)
[15] = dose: 400.0 mg/kg/injection, schedule: Q01DX009 (ip), vehicle: Klucel (hydroxypropylcellulose) (HPC)

Question: How did the T/C (dose: 100.0 mg/kg/injection, schedule: Q01DX001 (ip), vehicle: carboxymethylcellulose (CMC)) turn out when `CC1=NN(c2ccccc2)C(=O)C1N=Nc1ccc(S(=O)(=O)Nc2cc(C)nc(C)n2)cc1` (stereo unspecified) was run?
Answer: 98 % of control

Question: And the T/C (dose: 200.0 mg/kg/injection, schedule: Q01DX001 (ip), vehicle: carboxymethylcellulose (CMC))?
Answer: 98 % of control

Question: And the T/C (dose: 400.0 mg/kg/injection, schedule: Q01DX001 (ip), vehicle: carboxymethylcellulose (CMC))?
Answer: 95 % of control

Question: How did the T/C [1] turn out when `CNC1C(OC2C(OC)OC(C)C2(O)CO)OC(CO)C(O)C1O` (stereo unspecified) was run?
Answer: 110 % of control

Question: What about the T/C (dose: 200.0 mg/kg/injection, schedule: Q04DX003 (ip), vehicle: saline) of the same molecule?
Answer: 97 % of control

Question: What about the T/C (dose: 400.0 mg/kg/injection, schedule: Q04DX003 (ip), vehicle: saline) of the same molecule?
Answer: 97 % of control

Question: What does the source list for `CCOC(=O)C(c1ccccc1)C(NC(C)=O)(C(=O)OCC)C(=O)OCC` (stereo unspecified)?
Answer: T/C [2]: 114 % of control; T/C [3]: 104 % of control; T/C [4]: 93 % of control

Question: For `CCCCCCP(=O)(O)O`, which T/C [5] is on record?
Answer: 88 % of control

Question: For `Nc1cnccc1N1CCN(c2cccc3ccccc23)CC1`, which T/C (dose: 44.0 mg/kg/injection, schedule: Q01DX009 (ip), vehicle: saline with Tween-80) is on record?
Answer: 98 % of control

Question: What about the T/C (dose: 67.0 mg/kg/injection, schedule: Q01DX009 (ip), vehicle: saline with Tween-80) of the same molecule?
Answer: 93 % of control

Question: What about the T/C [5] of the same molecule?
Answer: 155 % of control

Question: And the T/C [6]?
Answer: 98 % of control

Question: And the T/C [7]?
Answer: 96 % of control

Question: And the T/C [8]?
Answer: 89 % of control

Question: What does the source list for `CC1(c2ccccc2O)Nc2ccccc2S1` (stereo unspecified)?
Answer: T/C [6]: 92 % of control; T/C [7]: 92 % of control; T/C [8]: 96 % of control

Question: How did the T/C (dose: 75.0 mg/kg/injection, schedule: Q01DX001 (ip), vehicle: other) turn out when `O=C(NCCCl)NC1CS(=O)(=O)CS(=O)(=O)C1` was run?
Answer: 104 % of control

Question: How did the T/C [9] turn out when `CCOC(=O)c1cc2cc(CC)ccc2[nH]1` was run?
Answer: 102 % of control

Question: And the T/C [10]?
Answer: 95 % of control

Question: What about the T/C [11] of the same molecule?
Answer: 95 % of control

Question: How did the T/C (dose: 12.5 mg/kg/injection, schedule: Q01DX001 (ip), vehicle: acetone) turn out when `[C-]#[N+]C(C)(c1ccccc1)c1ccccc1` was run?
Answer: 92 % of control

Question: And the T/C (dose: 25.0 mg/kg/injection, schedule: Q01DX001 (ip), vehicle: acetone)?
Answer: 95 % of control

Question: What about the T/C (dose: 50.0 mg/kg/injection, schedule: Q01DX001 (ip), vehicle: acetone) of the same molecule?
Answer: 110 % of control

Question: Which results are given for `CCOC(=O)CNc1ccc(F)c(F)c1`?
Answer: T/C [2]: 97 % of control; T/C [3]: 90 % of control; T/C [4]: 103 % of control

Question: `O=C(CCl)NC(=O)CCl` was tested. Which T/C (dose: 15.6 mg/kg/injection, schedule: Q01DX010 (ip), vehicle: other) did it give?
Answer: 97 % of control

Question: And the T/C (dose: 31.3 mg/kg/injection, schedule: Q01DX009 (ip), vehicle: other)?
Answer: 90 % of control

Question: And the T/C (dose: 62.5 mg/kg/injection, schedule: Q01DX009 (ip), vehicle: other)?
Answer: 92 % of control

Question: And the T/C (dose: 100.0 mg/kg/injection, schedule: Q01DX001 (ip), vehicle: saline)?
Answer: 103 % of control

Question: What about the T/C [6] of the same molecule?
Answer: 103 % of control

Question: What about the T/C (dose: 125.0 mg/kg/injection, schedule: Q01DX010 (ip), vehicle: other) of the same molecule?
Answer: 95 % of control

Question: And the T/C (dose: 200.0 mg/kg/injection, schedule: Q01DX001 (ip), vehicle: saline)?
Answer: 100 % of control

Question: And the T/C [7]?
Answer: 93 % of control

Question: Which results are given for `CC(C)CC(=O)CC(Cl)(C(F)(F)F)C(F)(F)F`?
Answer: T/C (dose: 100.0 mg/kg/injection, schedule: Q04DX003 (ip), vehicle: gum acacia): 100 % of control; T/C (dose: 200.0 mg/kg/injection, schedule: Q04DX003 (ip), vehicle: gum acacia): 100 % of control; T/C (dose: 400.0 mg/kg/injection, schedule: Q04DX003 (ip), vehicle: gum acacia): 90 % of control

Question: Which T/C (dose: 25.0 mg/kg/injection, schedule: Q01DX009 (ip), vehicle: saline) does the source give for `C=CCNC(=O)CCl` here?
Answer: 100 % of control

Question: What about the T/C (dose: 25.0 mg/kg/injection, schedule: Q04DX003 (ip), vehicle: saline) of the same molecule?
Answer: 97 % of control

Question: What about the T/C (dose: 50.0 mg/kg/injection, schedule: Q01DX009 (ip), vehicle: saline) of the same molecule?
Answer: 99 % of control

Question: What about the T/C (dose: 66.0 mg/kg/injection, schedule: Q04DX003 (ip), vehicle: saline) of the same molecule?
Answer: 104 % of control

Question: What about the T/C [12] of the same molecule?
Answer: 95 % of control

Question: What about the T/C [1] of the same molecule?
Answer: 106 % of control and 108 % of control

Question: What about the T/C (dose: 150.0 mg/kg/injection, schedule: Q04DX003 (ip), vehicle: saline) of the same molecule?
Answer: 100 % of control

Question: Which T/C (dose: 100.0 mg/kg/injection, schedule: Q04DX002 (ip), vehicle: saline with Tween-80) does the source give for `c1ccc(-c2oc(-c3ccccc3)c3c(-c4ccccc4)cccc23)cc1` here?
Answer: 105 % of control

Question: And the T/C (dose: 400.0 mg/kg/injection, schedule: Q04DX002 (ip), vehicle: saline with Tween-80)?
Answer: 98 % of control

Question: Which T/C [13] does the source give for `COC(=O)c1ccccc1N=Nc1cc(C)c(C)cc1O` here?
Answer: 88 % of control

Question: What about the T/C [14] of the same molecule?
Answer: 88 % of control

Question: And the T/C [15]?
Answer: 91 % of control

Question: For `Cc1ccc(Cl)cc1NS(=O)(=O)c1cc(Cl)c(Cl)cc1Cl`, which T/C [13] is on record?
Answer: 93 % of control

Question: And the T/C [14]?
Answer: 89 % of control

Question: What about the T/C [15] of the same molecule?
Answer: 94 % of control

Question: With `ClC1(Cl)OC(Cl)(Cl)C(Cl)(Cl)OC1(Cl)Cl` as the molecule, how does the T/C (dose: 50.0 mg/kg/injection, schedule: Q01DX009 (ip), vehicle: Klucel (hydroxypropylcellulose) (HPC)) read?
Answer: 98 % of control

Question: What about the T/C [13] of the same molecule?
Answer: 98 % of control

Question: What about the T/C [14] of the same molecule?
Answer: 102 % of control

Question: `N#Cc1nc2c3ccccc3c3ccccc3c2nc1C#N` was tested. Which T/C (dose: 75.0 mg/kg/injection, schedule: Q01DX009 (ip), vehicle: other) did it give?
Answer: 90 % of control

Question: And the T/C (dose: 300.0 mg/kg/injection, schedule: Q01DX009 (ip), vehicle: other)?
Answer: 104 % of control

Question: For `O=C(Nc1cccc(F)c1)SCc1ccccc1`, which T/C (dose: 100.0 mg/kg/injection, schedule: Q01DX009 (ip), vehicle: gum acacia) is on record?
Answer: 90 % of control

Question: And the T/C (dose: 200.0 mg/kg/injection, schedule: Q01DX009 (ip), vehicle: gum acacia)?
Answer: 90 % of control

Question: What about the T/C (dose: 400.0 mg/kg/injection, schedule: Q01DX009 (ip), vehicle: gum acacia) of the same molecule?
Answer: 98 % of control

Question: Which T/C [9] does the source give for `CN(C)CCC1(CCN(C)C)C(=O)CCc2ccccc21` here?
Answer: 97 % of control

Question: What about the T/C [10] of the same molecule?
Answer: 103 % of control

Question: What about the T/C [11] of the same molecule?
Answer: 103 % of control

Question: Which results are given for `CCC(COC(C)=O)(COC(C)=O)[N+](=O)[O-]`?
Answer: T/C (dose: 100.0 mg/kg/injection, schedule: Q04DX003 (ip), vehicle: Klucel (hydroxypropylcellulose) (HPC)): 103 % of control; T/C (dose: 200.0 mg/kg/injection, schedule: Q04DX003 (ip), vehicle: Klucel (hydroxypropylcellulose) (HPC)): 98 % of control; T/C (dose: 400.0 mg/kg/injection, schedule: Q04DX003 (ip), vehicle: Klucel (hydroxypropylcellulose) (HPC)): 101 % of control

Question: What does the source list for `CCCc1c(C)nc(N)[nH]c1=O`?
Answer: T/C (dose: 100.0 mg/kg/injection, schedule: Q01DX001 (ip), vehicle: Klucel (hydroxypropylcellulose) (HPC)): 102 % of control; T/C (dose: 200.0 mg/kg/injection, schedule: Q01DX001 (ip), vehicle: Klucel (hydroxypropylcellulose) (HPC)): 100 % of control; T/C (dose: 400.0 mg/kg/injection, schedule: Q01DX001 (ip), vehicle: Klucel (hydroxypropylcellulose) (HPC)): 97 % of control

Question: With `Nc1nc2c(ncn2-c2cccc(NC(=O)Nc3cc(S(=O)(=O)F)ccc3Cl)c2)c(=O)[nH]1` as the molecule, how does the T/C (dose: 12.5 mg/kg/injection, schedule: Q01DX001 (ip), vehicle: Klucel (hydroxypropylcellulose) (HPC)) read?
Answer: 87 % of control

Question: And the T/C (dose: 25.0 mg/kg/injection, schedule: Q01DX001 (ip), vehicle: Klucel (hydroxypropylcellulose) (HPC))?
Answer: 96 % of control

Question: And the T/C (dose: 50.0 mg/kg/injection, schedule: Q01DX001 (ip), vehicle: Klucel (hydroxypropylcellulose) (HPC))?
Answer: 89 % of control

Question: What does the source list for `CNC(=O)N(C)Cc1ccccc1`?
Answer: T/C [12]: 107 % of control; T/C [6]: 104 % of control; T/C (dose: 200.0 mg/kg/injection, schedule: Q01DX009 (ip), vehicle: saline): 115 % of control; T/C [7]: 93 % of control; T/C (dose: 400.0 mg/kg/injection, schedule: Q01DX009 (ip), vehicle: saline): 117 % of control; T/C [8]: 104 % of control

Question: Which T/C (dose: 155.0 mg/kg/injection, schedule: Q01DX Z (ip), vehicle: methylcellulose (MC)) does the source give for `c1coc(CNCNCc2ccco2)c1` here?
Answer: 94 % of control

Question: And the T/C (dose: 233.0 mg/kg/injection, schedule: Q01DX Z (ip), vehicle: methylcellulose (MC))?
Answer: 105 % of control

Question: And the T/C (dose: 350.0 mg/kg/injection, schedule: Q01DX Z (ip), vehicle: methylcellulose (MC))?
Answer: 100 % of control

Question: How did the T/C (dose: 6.25 mg/kg/injection, schedule: Q01DX009 (ip), vehicle: saline with Tween-80) turn out when `CC(=O)OC(C)C1C2=C(C(=O)CC1(C)O)C(=O)c1c(ccc(-c3ccc4c(c3O)C(=O)C3=C(C4=O)C(C(C)OC(C)=O)C(C)(O)CC3=O)c1O)C2=O` (stereo unspecified) was run?
Answer: 111 % of control

Question: And the T/C (dose: 12.5 mg/kg/injection, schedule: Q01DX009 (ip), vehicle: saline with Tween-80)?
Answer: 109 % of control
